{
  "source": "patent US7312330B2",
  "about": "“Bicycloheteroarylamine compounds as ion channel ligands and uses thereof” (Renovis, Inc., priority 2003, dated 2007)",
  "target": "hVR1 (Homo sapiens, UniProt Q8NER1)",
  "sequence (Q8NER1 whole entry)": "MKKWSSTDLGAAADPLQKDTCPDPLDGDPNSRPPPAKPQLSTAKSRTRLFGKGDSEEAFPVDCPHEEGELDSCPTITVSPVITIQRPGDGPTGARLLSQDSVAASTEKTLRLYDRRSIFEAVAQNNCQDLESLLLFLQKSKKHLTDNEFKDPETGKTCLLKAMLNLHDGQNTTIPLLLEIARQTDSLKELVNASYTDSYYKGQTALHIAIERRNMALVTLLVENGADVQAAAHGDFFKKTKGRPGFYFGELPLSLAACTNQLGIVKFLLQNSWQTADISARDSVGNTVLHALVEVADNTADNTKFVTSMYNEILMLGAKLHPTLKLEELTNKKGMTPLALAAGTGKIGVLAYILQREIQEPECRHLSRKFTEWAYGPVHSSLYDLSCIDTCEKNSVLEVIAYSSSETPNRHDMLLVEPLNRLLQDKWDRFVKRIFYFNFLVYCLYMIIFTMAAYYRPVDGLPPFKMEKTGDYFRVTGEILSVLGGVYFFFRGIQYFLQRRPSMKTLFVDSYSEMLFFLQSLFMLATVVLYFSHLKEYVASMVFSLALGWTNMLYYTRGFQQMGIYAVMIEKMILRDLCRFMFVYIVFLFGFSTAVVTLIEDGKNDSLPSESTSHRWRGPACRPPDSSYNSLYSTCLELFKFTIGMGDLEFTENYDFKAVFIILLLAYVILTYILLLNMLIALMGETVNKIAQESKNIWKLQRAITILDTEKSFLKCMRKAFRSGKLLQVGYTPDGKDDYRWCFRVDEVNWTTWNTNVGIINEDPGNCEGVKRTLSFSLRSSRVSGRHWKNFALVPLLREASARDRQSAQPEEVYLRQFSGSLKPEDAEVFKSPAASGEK",
  "assay": "Calcium imaging assay (Fura2) of VR1 antagonists, proton stimulation",
  "type": "cell-based",
  "settings": "HEK 293 cells expressing hVR1; for IC50: calcium ion influx induced by proton stimulation; for % Inhibition @ 1 μM: calcium ion influx induced by proton stimulation (pH 5.7)",
  "text": "VR1 protein is a heat-gated cation channel that exchanges about 10 calcium ions for every sodium ion resulting in neuronal membrane depolarization and elevated intracellular calcium ion levels. Therefore the functional activity of compounds at the VR1 receptor may be determined by measuring changes in intracellular calcium levels in 293 cells expressing capsaicin-insensitive VR1 receptor variants. A dual wavelength ratiometric dye, Fura2, was used as an indicator of relative levels of calcium ions in a 96 well format using a bench top scanning fluorometer with integrated fluidics and temperature control (Flex Station, Molecular Devices).\nA dual wavelength ratiometric dye, Fura2, was used as an indicator of relative levels of [Ca2+] in a 96 well format using a bench top scanning fluorometer with integrated fluidics and temperature control (Flex Station, Molecular Devices).\nHEK 293 cells expressing hVR1 were grown on PDL coated 96-well black-walled plates, in the presence of a DMEM medium containing 5% Penstrep, 5% Glutamax, 200 ug/mL Hygromycin, 5 μg/mL Blasticide and 10% heat inactivated FBS. Prior to assay, the cells were loaded with 5 μg/mL Fura2 in normal saline solution at 37° C. for 40 minutes. Cells were then washed with normal saline to remove the dye.\nThe assay consists of two stages; a pre-treatment phase followed by a treatment phase. In the pretreatment phase, 50 μl of a compound solution was added to the cells. Immediately following, 50 μl of the test compound in the presence of agonist (a saline solution plus 10 mM citric acid bufferd to pH 5.7 with HCl) was added. Fura2 was excited at […] to indicate relative calcium concentration. Changes in wavelength measurements were made throughout the course of the experiment in 4 second intervals over a period of 3 minutes. The fluorescence ratio from the excitations at […] was recorded for analysis. Responses were measured as peak fluorescence ratio after compound-agonist addition minus baseline fluorescence ratio prior to treatment and were calculated for each concentration tested using the SoftMaxPro software. Data was expressed as percentage inhibition calculated as follows: […]\nA dose response curve was then determined, from which the ID50 of each compound was calculated.",
  "data": [
    {"smiles": "c1ccc(CN2CCc3c(ncnc3Nc3cnc4ccccc4c3)C2)cc1", "note": "[Example 38, 7-Benzyl-5,6,7,8-tetrahydro-N-(quinolin-3-yl)pyrido[3,4-d]pyrimidin-4-amine]", "values": [
      {"measurement": "IC50", "value": "101 to 500", "unit": "nM"}
    ]},
    {"smiles": "CN1CC(C)(C)c2ccc(Nc3ncnc4c3CCN(c3ncccc3Cl)C4)cc21", "note": "[Example 70, 7-(3-Chloropyridin-2-yl)-5,6,7,8-tetrahydro-N-(1,3,3-trimethylindolin-6-yl)pyrido[3,4-d]pyrimidin-4-amine]", "values": [
      {"measurement": "% Inhibition @ 1 μM", "value": "++++ (compound exhibited 76% or greater inhibition of calcium ion influx induced by proton stimulation)"},
      {"measurement": "IC50", "value": "< 100", "unit": "nM"}
    ]},
    {"smiles": "CSc1nc2c(c(Nc3ccc(C(F)(F)F)cc3)n1)CCN(c1ncccc1S(C)(=O)=O)C2", "note": "[Example 63, N-(4-(Trifluoromethyl)phenyl)-5,6,7,8-tetrahydro-7-(3-(methylsulfonyl)pyridin-2-yl)-2-(methylthio)pyrido[3,4-d]pyrimidin-4-amine]", "values": [
      {"measurement": "% Inhibition @ 1 μM", "value": "+++ (compound exhibited 51-75% inhibition of calcium ion influx induced by proton stimulation)"},
      {"measurement": "IC50", "value": "101 to 500", "unit": "nM"}
    ]},
    {"smiles": "CC(=O)N1Cc2cc(Nc3ncnc4c3CCN(c3ncccc3Cl)C4)ccc2C(C)(C)C1", "note": "[Example 61]", "values": [
      {"measurement": "IC50", "value": "> 1000", "unit": "nM"}
    ]},
    {"smiles": "CS(=O)(=O)c1cccnc1N1CCc2c(ncnc2Nc2ccc(OC(F)F)cc2)C1", "note": "[Example 14, N-(4-(Difluoromethoxy)phenyl)-5,6,7,8-tetrahydro-7-(3-(methylsulfonyl)pyridin-2-yl)pyrido[3,4-d]pyrimidin-4-amine]", "values": [
      {"measurement": "% Inhibition @ 1 μM", "value": "+ (compound exhibited 0-25% inhibition of calcium ion influx induced by proton stimulation)"}
    ]},
    {"smiles": "CC1(C)CNCc2cc(Nc3ncnc4c3CCN(c3ncccc3Cl)C4)ccc21", "note": "[Example 62, 7-(3-chloropyridin-2-yl)-5,6,7,8-tetrahydro-N-(1,2,3,4-tetrahydro-4,4-dimethylisoquinolin-7-yl)pyrido[3,4-d]pyrimidin-4-amine]", "values": [
      {"measurement": "IC50", "value": "> 1000", "unit": "nM"}
    ]},
    {"smiles": "CC(C)(C#N)c1ccc(Nc2ncnc3c2CCN(c2ncccc2Cl)C3)cc1", "note": "[Example 56, 2-(4-(7-(3-Chloropyridin-2-yl)-5,6,7,8-tetrahydropyrido[3,4-d]pyrimidin-4-ylamino)phenyl)-2-methylpropanenitrile]", "values": [
      {"measurement": "% Inhibition @ 1 μM", "value": "++++ (compound exhibited 76% or greater inhibition of calcium ion influx induced by proton stimulation)"},
      {"measurement": "IC50", "value": "< 100", "unit": "nM"}
    ]},
    {"smiles": "CC(C)(C)c1ccc(Nc2ncnc3c2CCN(c2ncccc2C(F)(F)F)C3)cc1.Cl", "note": "[Example 4, N-(4-tert-Butylphenyl)-7-(3-(trifluoromethyl)pyridin-2-yl)-5,6,7,8-tetrahydropyrido[3,4-d]pyrimidin-4-amine hydrochloride]", "values": [
      {"measurement": "% Inhibition @ 1 μM", "value": "++++ (compound exhibited 76% or greater inhibition of calcium ion influx induced by proton stimulation)"},
      {"measurement": "IC50", "value": "< 100", "unit": "nM"}
    ]},
    {"smiles": "FC(F)Oc1ccc(Nc2ncnc3c2CCN(c2ncccc2C(F)(F)F)C3)cc1", "note": "[Example 77, N-(4-(difluoromethoxy)phenyl)-7-(3-(trifluoromethyl)pyridin-2-yl)-5,6,7,8-tetrahydropyrido[3,4-d]pyrimidin-4-amine]", "values": [
      {"measurement": "% Inhibition @ 1 μM", "value": "++++ (compound exhibited 76% or greater inhibition of calcium ion influx induced by proton stimulation)"},
      {"measurement": "IC50", "value": "101 to 500", "unit": "nM"}
    ]},
    {"smiles": "Fc1cccnc1N1CCc2c(ncnc2Nc2ccc(C(F)(F)F)cc2)C1", "note": "[Example 11, [7-(3-Fluoro-pyridin-2-yl)-5,6,7,8-tetrahydro-pyrido[3,4-d]pyrimidin-4-yl]-(4-trifluoromethyl-phenyl)-amine]", "values": [
      {"measurement": "% Inhibition @ 1 μM", "value": "++++ (compound exhibited 76% or greater inhibition of calcium ion influx induced by proton stimulation)"},
      {"measurement": "IC50", "value": "101 to 500", "unit": "nM"}
    ]},
    {"smiles": "CS(=O)(=O)c1cccnc1N1CCc2c(ncnc2Nc2ccc(C(F)(F)F)nc2)C1", "note": "[Example 21]", "values": [
      {"measurement": "% Inhibition @ 1 μM", "value": "+++ (compound exhibited 51-75% inhibition of calcium ion influx induced by proton stimulation)"},
      {"measurement": "IC50", "value": "101 to 500", "unit": "nM"}
    ]},
    {"smiles": "CN1CCC(C)(C)c2ccc(Nc3ncnc4c3CCN(c3ncccc3Cl)C4)cc21", "note": "[Example 60, 7-(3-Chloropyridin-2-yl)-5,6,7,8-tetrahydro-N-(1,2,3,4-tetrahydro-1,4,4-trimethylquinolin-7-yl)pyrido[3,4-d]pyrimidin-4-amine]", "values": [
      {"measurement": "IC50", "value": "< 100", "unit": "nM"}
    ]},
    {"smiles": "CC1(C)CNc2cc(Nc3ncnc4c3CCN(c3ncccc3Cl)C4)ccc21", "note": "[Example 69, 7-(3-Chloropyridin-2-yl)-5,6,7,8-tetrahydro-N-(3,3-dimethylindolin-6-yl)pyrido[3,4-d]pyrimidin-4-amine]", "values": [
      {"measurement": "% Inhibition @ 1 μM", "value": "++++ (compound exhibited 76% or greater inhibition of calcium ion influx induced by proton stimulation)"},
      {"measurement": "IC50", "value": "101 to 500", "unit": "nM"}
    ]},
    {"smiles": "CC(C)S(=O)(=O)c1cccnc1N1CCc2c(ncnc2Nc2ccc(C(F)(F)F)cc2)C1", "note": "[Example 16, N-(4-(Trifluoromethyl)phenyl)-5,6,7,8-tetrahydro-7-(3-(isopropylsulfonyl)pyridin-2-yl)pyrido[3,4-d]pyrimidin-4-amine]", "values": [
      {"measurement": "IC50", "value": "> 1000", "unit": "nM"}
    ]},
    {"smiles": "COc1cccc(Nc2ncnc3c2CCN(c2cc(C(F)(F)F)ccn2)C3)c1", "note": "[Example 72, 7-(4-(Trifluoromethyl)pyridin-2-yl)-5,6,7,8-tetrahydro-N-(3-methoxyphenyl)pyrido[3,4-d]pyrimidin-4-amine]", "values": [
      {"measurement": "% Inhibition @ 1 μM", "value": "+ (compound exhibited 0-25% inhibition of calcium ion influx induced by proton stimulation)"},
      {"measurement": "IC50", "value": "> 1000", "unit": "nM"}
    ]},
    {"smiles": "FC(F)(F)Oc1ccc(Nc2ncnc3c2CCN(c2ncccc2C(F)(F)F)C3)cc1", "note": "[Example 79, 7-(3-(trifluoromethyl)pyridin-2-yl)-5,6,7,8-tetrahydro-N-(4-(trifluoromethoxy)-phenyl)pyrido[3,4-d]pyrimidin-4-amine]", "values": [
      {"measurement": "% Inhibition @ 1 μM", "value": "++++ (compound exhibited 76% or greater inhibition of calcium ion influx induced by proton stimulation)"},
      {"measurement": "IC50", "value": "< 100", "unit": "nM"}
    ]},
    {"smiles": "Cc1cccc(N2CCc3c(ncnc3Nc3ccc4c(c3)OCCO4)C2)c1", "note": "[Example 36, (2,3-Dihydro-benzo[1,4]dioxin-6-yl)-(7-m-tolyl-5,6,7,8-tetrahydro-pyrido[3,4-d]pyrimidin-4-yl)-amine]", "values": [
      {"measurement": "% Inhibition @ 1 μM", "value": "++ (compound exhibited 26-50% inhibition of calcium ion influx induced by proton stimulation)"}
    ]},
    {"smiles": "CC1(C)CCNc2cc(Nc3ncnc4c3CCN(c3ncccc3Cl)C4)ccc21", "note": "[Example 59, 7-(3-chloropyridin-2-yl)-5,6,7,8-tetrahydro-N-(1,2,3,4-tetrahydro-4,4-dimethylquinolin-7-yl)pyrido[3,4-d]pyrimidin-4-amine]", "values": [
      {"measurement": "IC50", "value": "101 to 500", "unit": "nM"}
    ]},
    {"smiles": "Clc1ccc(CNc2ncnc3c2CCN(c2ncccc2Cl)C3)cc1", "note": "[Example 41, N-(4-Chlorobenzyl)-7-(3-chloropyridin-2-yl)-5,6,7,8-tetrahydropyrido[3,4-d]pyrimidin-4-amine]", "values": [
      {"measurement": "% Inhibition @ 1 μM", "value": "++ (compound exhibited 26-50% inhibition of calcium ion influx induced by proton stimulation)"},
      {"measurement": "IC50", "value": "101 to 500", "unit": "nM"}
    ]},
    {"smiles": "COc1cccc(Nc2ncnc3c2CCN(c2ccc(C(F)(F)F)cn2)C3)c1", "note": "[Example 73, 7-(5-(Trifluoromethyl)pyridin-2-yl)-5,6,7,8-tetrahydro-N-(3-methoxyphenyl)pyrido[3,4-d]pyrimidin-4-amine]", "values": [
      {"measurement": "% Inhibition @ 1 μM", "value": "+ (compound exhibited 0-25% inhibition of calcium ion influx induced by proton stimulation)"},
      {"measurement": "IC50", "value": "> 1000", "unit": "nM"}
    ]},
    {"smiles": "Clc1cccnc1N1CCc2c(ncnc2NCCOc2ccccc2)C1", "note": "[Example 52, 7-(3-Chloropyridin-2-yl)-5,6,7,8-tetrahydro-N-(2-phenoxyethyl)pyrido[3,4-d]pyrimidin-4-amine]", "values": [
      {"measurement": "% Inhibition @ 1 μM", "value": "+ (compound exhibited 0-25% inhibition of calcium ion influx induced by proton stimulation)"}
    ]},
    {"smiles": "Clc1ccc(CCNc2ncnc3c2CCN(c2ncccc2Cl)C3)cc1", "note": "[Example 40, N-(4-Chlorophenethyl)-7-(3-chloropyridin-2-yl)-5,6,7,8-tetrahydropyrido[3,4-d]pyrimidin-4-amine]", "values": [
      {"measurement": "% Inhibition @ 1 μM", "value": "+++ (compound exhibited 51-75% inhibition of calcium ion influx induced by proton stimulation)"},
      {"measurement": "IC50", "value": "> 1000", "unit": "nM"}
    ]},
    {"smiles": "CC(C)(C)c1ccc(Nc2nc(CN3CCOCC3)nc3c2CCN(c2ncccc2Cl)C3)cc1", "note": "[Example 13, (4-tert-Butyl-phenyl)-[7-(3-chloro-pyridin-2-yl)-2-morpholin-4-ylmethyl-5,6,7,8-tetrahydro-pyrido[3,4-d]pyrimidin-4-yl]-amine]", "values": [
      {"measurement": "% Inhibition @ 1 μM", "value": "++ (compound exhibited 26-50% inhibition of calcium ion influx induced by proton stimulation)"}
    ]},
    {"smiles": "COc1nc2c(c(Nc3ccc(C(F)(F)F)cc3)n1)CCN(c1ncccc1Cl)C2", "note": "[Example 27, 7-(3-Chloropyridin-2-yl)-N-(4-(trifluoromethyl)phenyl)-5,6,7,8-tetrahydro-2-methoxypyrido[3,4-d]pyrimidin-4-amine]", "values": [
      {"measurement": "IC50", "value": "101 to 500", "unit": "nM"}
    ]},
    {"smiles": "Oc1nc2c(c(Nc3ccc(C(F)(F)F)cc3)n1)CCN(c1ncccc1Cl)C2", "note": "[Example 57, 4-(4-(Trifluoromethyl)phenylamino)-7-(3-chloropyridin-2-yl)-5,6,7,8-tetrahydropyrido[3,4-d]pyrimidin-2-ol]", "values": [
      {"measurement": "% Inhibition @ 1 μM", "value": "+ (compound exhibited 0-25% inhibition of calcium ion influx induced by proton stimulation)"},
      {"measurement": "IC50", "value": "> 1000", "unit": "nM"}
    ]}
  ]
}
